Source: patent US9422293B2 (priority 2006, dated 2016)
Structures can show the parent of a compound that is named as a salt.

These molecules were tested against rat TRPV1 (Rattus norvegicus (Rat), UniProt O35433). Conditions: read-out: Rat IC50.
Chain of rat TRPV1 (O35433 whole entry): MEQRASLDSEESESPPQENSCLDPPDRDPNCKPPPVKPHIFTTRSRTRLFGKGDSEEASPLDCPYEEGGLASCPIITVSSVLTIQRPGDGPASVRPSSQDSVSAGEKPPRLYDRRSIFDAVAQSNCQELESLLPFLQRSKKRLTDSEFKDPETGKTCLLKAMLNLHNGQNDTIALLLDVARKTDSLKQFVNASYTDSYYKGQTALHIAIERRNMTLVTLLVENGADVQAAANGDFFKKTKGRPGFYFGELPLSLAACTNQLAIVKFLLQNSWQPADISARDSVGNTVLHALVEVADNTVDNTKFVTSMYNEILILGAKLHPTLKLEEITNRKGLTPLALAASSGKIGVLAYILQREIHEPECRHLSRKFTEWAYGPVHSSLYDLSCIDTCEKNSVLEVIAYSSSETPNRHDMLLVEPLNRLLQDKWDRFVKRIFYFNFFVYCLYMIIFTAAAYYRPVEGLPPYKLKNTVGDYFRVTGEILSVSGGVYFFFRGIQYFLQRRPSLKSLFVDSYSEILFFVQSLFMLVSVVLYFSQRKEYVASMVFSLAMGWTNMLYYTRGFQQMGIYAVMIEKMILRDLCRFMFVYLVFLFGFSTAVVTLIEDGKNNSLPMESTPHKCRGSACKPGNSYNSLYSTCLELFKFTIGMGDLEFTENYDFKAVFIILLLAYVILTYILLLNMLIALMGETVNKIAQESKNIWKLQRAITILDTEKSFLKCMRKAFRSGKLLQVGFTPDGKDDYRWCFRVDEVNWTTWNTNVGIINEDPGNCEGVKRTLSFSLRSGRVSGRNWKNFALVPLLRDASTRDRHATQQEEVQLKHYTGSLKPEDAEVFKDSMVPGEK
With CC(O)(c1ccc(Nc2nc(N3CCCCC3)nc3c2CCN(c2ncccc2C(F)(F)F)CC3)cc1)C(F)(F)F (stereo not drawn) [Example 180, 1,1,1-Trifluoro-2-[4-({2-piperidin-1-yl-7-[3-(trifluoromethyl)pyridin-2-yl]-6,7,8,9-tetrahydro-5H-pyrimido[4,5-d]azepin-4-yl}amino)phenyl]propan-2-ol] the IC50 was greater than 6670 nM.
CC(C)c1nc2c(c(Nc3ccc(C(C)(C)CO)cc3)n1)CCN(c1ncccc1C(F)(F)F)CC2 [Example 181, 2-Methyl-2-[4-({2-(1-methylethyl)-7-[3-(trifluoromethyl)pyridin-2-yl]-6,7,8,9-tetrahydro-5H-pyrimido[4,5-d]azepin-4-yl}amino)phenyl]propan-1-ol] was tested, and the IC50 was 820 nM.
Work on CC(C)c1nc2c(c(Nc3ccc(C(C)O)cc3)n1)CCN(c1ncccc1C(F)(F)F)CC2 (stereo not drawn) [Example 182, 1-[4-({2-(1-Methylethyl)-7-[3-(trifluoromethyl)pyridin-2-yl]-6,7,8,9-tetrahydro-5H-pyrimido[4,5-d]azepin-4-yl}amino)phenyl]ethanol] yielded an IC50 of 790 nM.
Molecule CC(C)c1nc2c(c(Nc3ccc(C(O)C(F)(F)F)cc3)n1)CCN(c1ncccc1C(F)(F)F)CC2 (stereo not drawn) [Example 183, 2,2,2-Trifluoro-1-[4-({2-(1-methylethyl)-7-[3-(trifluoromethyl)pyridin-2-yl]-6,7,8,9-tetrahydro-5H-pyrimido[4,5-d]azepin-4-yl}amino)phenyl]ethanol] has an IC50 of 2370 nM.
For CC(C)c1nc2c(c(Nc3ccc(C(C)(C)C(=O)O)cc3)n1)CCN(c1ncccc1C(F)(F)F)CC2 [Example 184, 2-Methyl-2-[4-({2-(1-methylethyl)-7-[3-(trifluoromethyl)pyridin-2-yl]-6,7,8,9-tetrahydro-5H-pyrimido[4,5-d]azepin-4-yl}amino)phenyl]propanoic acid], the IC50 was 1950 nM.
CC(C)(C(=O)O)c1ccc(Nc2nc(N3CCCCC3)nc3c2CCN(c2ncccc2C(F)(F)F)CC3)cc1 [Example 186, 2-Methyl-2-[4-({2-piperidin-1-yl-7-[3-(trifluoromethyl)pyridin-2-yl]-6,7,8,9-tetrahydro-5H-pyrimido[4,5-d]azepin-4-yl}amino)phenyl]propanoic acid] gave an IC50 of 140 nM.
Cc1cnc(Nc2nc(C(C)C)nc3c2CCN(c2ncccc2C(F)(F)F)CC3)cn1 [Example 187, 2-(1-Methylethyl)-N-(5-methylpyrazin-2-yl)-7-[3-(trifluoromethyl)pyridin-2-yl]-6,7,8,9-tetrahydro-5H-pyrimido[4,5-d]azepin-4-amine hydrochloride salt] gave an IC50 of 2850 nM.
CC(C)c1nc2c(c(Nc3ccc(C(F)(F)F)c(Cl)n3)n1)CCN(c1ncccc1C(F)(F)F)CC2 [Example 188, N-[6-Chloro-5-(trifluoromethyl)pyridin-2-yl]-2-(1-methylethyl)-7-[3-(trifluoromethyl)pyridin-2-yl]-6,7,8,9-tetrahydro-5H-pyrimido[4,5-d]azepin-4-amine hydrochloride salt] gave an IC50 of 1590 nM.
FC(F)(F)c1ccc(Nc2nc(-c3ccncc3)nc3c2CCN(c2ncccc2C(F)(F)F)CC3)nc1 [Example 190, 2-Pyridin-4-yl-7-[3-(trifluoromethyl)pyridin-2-yl]-N-[5-(trifluoromethyl)pyridin-2-yl]-6,7,8,9-tetrahydro-5H-pyrimido[4,5-d]azepin-4-amine trifluoroacetic acid salt] showed an IC50 of 1160 nM.
CC(C)c1nc2c(c(Nc3cnc(C(F)(F)F)cn3)n1)CCN(c1ncccc1C(F)(F)F)CC2 [Example 191, [2-Isopropyl-7-(3-trifluoromethyl-pyridin-2-yl)-6,7,8,9-tetrahydro-5H-pyrimido[4,5-d]azepin-4-yl]-(5-trifluoromethyl-pyrazin-2-yl)-amine] was tested, and the IC50 was 260 nM.
With FC(F)(F)c1cnc(Nc2nc(N3CCCCC3)nc3c2CCN(c2ncccc2C(F)(F)F)CC3)cn1 [Example 192, [2-Piperidin-1-yl-7-(3-trifluoromethyl-pyridin-2-yl)-6,7,8,9-tetrahydro-5H-pyrimido[4,5-d]azepin-4-yl]-(5-trifluoromethyl-pyrazin-2-yl)-amine] the IC50 was 70 nM.
Work on CN1CCN(c2nc3c(c(Nc4ccc(C(F)(F)F)cn4)n2)CCN(c2ncccc2C(F)(F)F)CC3)CC1 [Example 193, 2-(4-Methylpiperazin-1-yl)-7-[3-(trifluoromethyl)pyridin-2-yl]-N-[5-(trifluoromethyl)pyridin-2-yl]-6,7,8,9-tetrahydro-5H-pyrimido[4,5-d]azepin-4-amine] yielded an IC50 of 2110 nM.
In the case of FC(F)(F)c1ccc(Nc2nc(N3CCCCCC3)nc3c2CCN(c2ncccc2C(F)(F)F)CC3)nc1 [Example 194, 2-Azepan-1-yl-7-[3-(trifluoromethyl)pyridin-2-yl]-N-[5-(trifluoromethyl)pyridin-2-yl]-6,7,8,9-tetrahydro-5H-pyrimido[4,5-d]azepin-4-amine], the IC50 is reported as 70 nM.
In the case of FC(F)(F)c1ccc(Nc2nc(N3CCC3)nc3c2CCN(c2ncccc2C(F)(F)F)CC3)nc1 [Example 197, 2-Azetidin-1-yl-7-[3-(trifluoromethyl)pyridin-2-yl]-N-[5-(trifluoromethyl)pyridin-2-yl]-6,7,8,9-tetrahydro-5H-pyrimido[4,5-d]azepin-4-amine trifluoroacetic acid salt], the IC50 is reported as 150 nM.
With CC(C)c1nc2c(c(Nc3ccc(N)cc3)n1)CCN(c1ncccc1C(F)(F)F)CC2 [Example 198, N-{2-(1-Methylethyl)-7-[3-(trifluoromethyl)pyridin-2-yl]-6,7,8,9-tetrahydro-5H-pyrimido[4,5-d]azepin-4-yl}benzene-1,4-diamine trifluoroacetic acid salt] the IC50 was 9160 nM.
CC(C)c1nc2c(c(Nc3ccc(C(C)(C)C)c(N)c3)n1)CCN(c1ncccc1C(F)(F)F)CC2 [Example 199, 4-(1,1-Dimethylethyl)-N1-{2-(1-methylethyl)-7-[3-(trifluoromethyl)pyridin-2-yl]-6,7,8,9-tetrahydro-5H-pyrimido[4,5-d]azepin-4-yl}benzene-1,3-diamine] was tested, and the IC50 was 1360 nM.
With CC(C)(C)c1ccc(Nc2nc(N3CCCCC3)nc3c2CCN(c2ncccc2C(F)(F)F)CC3)cc1N [Example 200, 4-(1,1-Dimethylethyl)-N1-{2-piperidin-1-yl-7-[3-(trifluoromethyl)pyridin-2-yl]-6,7,8,9-tetrahydro-5H-pyrimido[4,5-d]azepin-4-yl}benzene-1,3-diamine] the IC50 was 110 nM.
For CC(C)c1nc2c(c(Nc3ccc(C(C)(C)C)cc3)n1)CCN(c1ncc(N)cc1C(F)(F)F)CC2 [Example 201, 7-[5-Amino-3-(trifluoromethyl)pyridin-2-yl]-N-[4-(1,1-dimethylethyl)phenyl]-2-(1-methylethyl)-6,7,8,9-tetrahydro-5H-pyrimido[4,5-d]azepin-4-amine], the IC50 was 320 nM.
In the case of CSc1nc2c(c(Nc3ccc(C(C)(C)C)cc3)n1)CCN(c1ncccc1C(F)(F)F)CC2 [Example 202, N-[4-(1,1-Dimethylethyl)phenyl]-2-(methylsulfanyl)-7-[3-(trifluoromethyl)pyridin-2-yl]-6,7,8,9-tetrahydro-5H-pyrimido[4,5-d]azepin-4-amine], the IC50 is reported as 12400 nM.
With CSc1nc2c(c(Nc3ccc(C(F)(F)F)cc3Cl)n1)CCN(c1ncccc1C(F)(F)F)CC2 [Example 203, N-[2-Chloro-4-(trifluoromethyl)phenyl]-2-(methylsulfanyl)-7-[3-(trifluoromethyl)pyridin-2-yl]-6,7,8,9-tetrahydro-5H-pyrimido[4,5-d]azepin-4-amine] the IC50 was greater than 6670 nM.
With CSc1nc2c(c(Nc3ccc(C(F)(F)F)cc3C)n1)CCN(c1ncccc1C(F)(F)F)CC2 [Example 204, 2-(Methylsulfanyl)-N-[2-methyl-4-(trifluoromethyl)phenyl]-7-[3-(trifluoromethyl)pyridin-2-yl]-6,7,8,9-tetrahydro-5H-pyrimido[4,5-d]azepin-4-amine] the IC50 was 560 nM.
CSc1nc2c(c(Nc3ccc4c(c3)N(C)CCC4)n1)CCN(c1ncccc1C(F)(F)F)CC2 [Example 205, 2-(Methylsulfanyl)-N-(1-methyl-1,2,3,4-tetrahydroquinolin-7-yl)-7-[3-(trifluoromethyl)pyridin-2-yl]-6,7,8,9-tetrahydro-5H-pyrimido[4,5-d]azepin-4-amine] was tested, and the IC50 was 2280 nM.
In the case of CC(C)(C)c1ccc(Nc2nc(S(C)(=O)=O)nc3c2CCN(c2ncccc2C(F)(F)F)CC3)cc1 [Example 207, N-[4-(1,1-Dimethylethyl)phenyl]-2-(methylsulfonyl)-7-[3-(trifluoromethyl)pyridin-2-yl]-6,7,8,9-tetrahydro-5H-pyrimido[4,5-d]azepin-4-amine], the IC50 is reported as 770 nM.
Work on Cc1cc(C(F)(F)F)ccc1Nc1nc(S(C)(=O)=O)nc2c1CCN(c1ncccc1C(F)(F)F)CC2 [Example 209, 2-(Methylsulfonyl)-N-[2-methyl-4-(trifluoromethyl)phenyl]-7-[3-(trifluoromethyl)pyridin-2-yl]-6,7,8,9-tetrahydro-5H-pyrimido[4,5-d]azepin-4-amine] yielded an IC50 of 3450 nM.
Molecule O=S1(=O)CCCCN1c1nc2c(c(Nc3ccc(C(F)(F)F)cc3)n1)CCN(c1ncccc1C(F)(F)F)CC2 [Example 212, 2-(1,1-Dioxido-1,2-thiazinan-2-yl)-N-[4-(trifluoromethyl)phenyl]-7-[3-(trifluoromethyl)pyridin-2-yl]-6,7,8,9-tetrahydro-5H-pyrimido[4,5-d]azepin-4-amine trifluoroacetic acid salt] has an IC50 of 220 nM.
COCCNc1nc2c(c(Nc3ccc(C(F)(F)F)cc3)n1)CCN(c1ncccc1C(F)(F)F)CC2 [Example 213, N^2-[2-(Methyloxy)ethyl]-N^4-[4-(trifluoromethyl)phenyl]-7-[3-(trifluoromethyl)pyridin-2-yl]-6,7,8,9-tetrahydro-5H-pyrimido[4,5-d]azepine-2,4-diamine trifluoroacetic acid salt] gave an IC50 of 110 nM.
Molecule COC[C@@H]1CCCN1c1nc2c(c(Nc3ccc(C(F)(F)F)cc3)n1)CCN(c1ncccc1C(F)(F)F)CC2 [Example 215, 2-{(2S)-2-[(Methyloxy)methyl]pyrrolidin-1-yl}-N-[4-(trifluoromethyl)phenyl]-7-[3-(trifluoromethyl)pyridin-2-yl]-6,7,8,9-tetrahydro-5H-pyrimido[4,5-d]azepin-4-amine trifluoroacetic acid salt] has an IC50 of 10 nM.
